Patent US6355799B1, “Substituted benzene compounds, process for their preparation, and herbicidal and defoliant compositions containing them” (ISK Americas Incorporated, priority 1997, dated 2002)

Tests used:
Format in all cases: in vivo
[1] = test system: redroot pigweed (Amaranthus retroflexus, AMARE); assay: Pre-emerge test, greenhouse herbicide activity screening; conditions: pre-emerge, 14 days after application, rating scale 0-100
In short: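 Compounds in acetone were track-sprayed at 187 l/ha, 15–1000 g ai/ha, onto sandy loam pots. Pre-emerge seeds were sown one day before spraying, with surface watering afterwards. Post-emerge plants were at the 2–3 leaf stage and sprayed with 0.25% v/v non-ionic surfactant. Injury was rated 0–100 at 14 days.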

[2] = test system: lambsquarters (Chenopodium album, CHEAL); assay: as above; conditions: pre-emerge, 14 days after application, rating scale 0-100
In short: (§1)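 Applied at 15–1000 g ai/ha from acetone in 187 l/ha spray volume. Post-emergence applications included 0.25% v/v non-ionic surfactant and reached plants sown 8–21 days before. Pre-emergence applications were incorporated by surface watering. Efficacy or crop damage was rated on a 0–100 scale after 14 days.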

[3] = test system: ivyleaf morningglory (Ipomoea hederacea, IPOHE); assay: as above; conditions: pre-emerge, 14 days after application, rating scale 0-100
In short: as §1

[4] = test system: large crabgrass (Digitaria sanguinalis, DIGSA); assay: as above; conditions: pre-emerge, 14 days after application, rating scale 0-100
In short: as §1

[5] = test system: sicklepod (Cassia obtusifolia, CASOB); assay: as above; conditions: pre-emerge, 14 days after application, rating scale 0-100
In short: as §1

[6] = test system: johnsongrass (Sorghum halepense, SORHA); assay: as above; conditions: pre-emerge, 14 days after application, rating scale 0-100
In short: as §1

[7] = test system: barnyardgrass (Echinochloa crus-galli, ECHCG); assay: as above; conditions: pre-emerge, 14 days after application, rating scale 0-100
In short: as §1

[8] = test system: velvetleaf (Abutilon theophrasti, ABUTH); assay: as above; conditions: pre-emerge, 14 days after application, rating scale 0-100
In short: as §1

[9] = test system: green foxtail (Setaria viridis, SETVI); assay: as above; conditions: pre-emerge, 14 days after application, rating scale 0-100
In short: as §1

[10] = test system: field corn (Zea mays L., var. Dekalb 535, CORN); assay: Pre-emerge test, crop safety; conditions: pre-emerge, 14 days after application, rating scale 0-100
In short: (§2)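 Fourteen days after spraying, crop and weed injury was graded visually from 0, no effect, to 100, every plant dead. Test substances were dissolved in acetone and applied at 15–1000 g ai/ha with a flat-fan nozzle. Application was either pre-emergence, one day after sowing, or post-emergence at the 2–3 leaf stage.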

[11] = test system: upland rice (Oryza sp., var. Tebonnet, RICE); assay: Pre-emerge test, crop safety; conditions: pre-emerge, 14 days after application, rating scale 0-100
In short: as §2

[12] = test system: field corn (Zea mays L., var. Dekalb 535, CORN); assay: Post-emerge test, crop safety; conditions: post-emerge, 14 days after application, rating scale 0-100
In short: as §1

[13] = test system: upland rice (Oryza sp., var. Tebonnet, RICE); assay: Post-emerge test, crop safety; conditions: post-emerge, 14 days after application, rating scale 0-100
In short: as §1

[14] = test system: lambsquarters (Chenopodium album, CHEAL); assay: Post-emerge test, greenhouse herbicide activity screening; conditions: post-emerge, 14 days after application, rating scale 0-100
In short: (§3)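 Sandy loam pots; pre-emerge: sown 1 d pre-spray, surface-watered after, then bottom-watered. Post-emerge: sown 8–21 d before, 2–3 leaf stage, + 0.25% v/v NIS, bottom-watered. Acetone, 187 l/ha track spray, 15–1000 g ai/ha. 0–100 injury score, day 14.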

[15] = test system: ivyleaf morningglory (Ipomoea hederacea, IPOHE); assay: as above; conditions: post-emerge, 14 days after application, rating scale 0-100
In short: as §3

[16] = test system: large crabgrass (Digitaria sanguinalis, DIGSA); assay: as above; conditions: post-emerge, 14 days after application, rating scale 0-100
In short: as §3

[17] = test system: sicklepod (Cassia obtusifolia, CASOB); assay: as above; conditions: post-emerge, 14 days after application, rating scale 0-100
In short: as §3

[18] = test system: johnsongrass (Sorghum halepense, SORHA); assay: as above; conditions: post-emerge, 14 days after application, rating scale 0-100
In short: as §3

[19] = test system: barnyardgrass (Echinochloa crus-galli, ECHCG); assay: as above; conditions: post-emerge, 14 days after application, rating scale 0-100
In short: as §3

[20] = test system: redroot pigweed (Amaranthus retroflexus, AMARE); assay: as above; conditions: post-emerge, 14 days after application
In short: as §3

[21] = test system: velvetleaf (Abutilon theophrasti, ABUTH); assay: as above; conditions: post-emerge, 14 days after application, rating scale 0-100
In short: as §3

[22] = test system: green foxtail (Setaria viridis, SETVI); assay: as above; conditions: post-emerge, 14 days after application, rating scale 0-100
In short: as §3

How did the “phytotoxicity rating AMARE” value ([1]; 63 g ai/ha) turn out when COc1cc(Cl)cc(Cl)c1-n1c(=O)cc(C(F)(F)F)n(C)c1=O [16-2] was run?
The value was 40.

And the “phytotoxicity rating AMARE” value ([1]; 250 g ai/ha)?
The value was 100.

What about the “phytotoxicity rating CHEAL” value ([2]; 63 g ai/ha) of the same compound?
The value was 80.

And the “phytotoxicity rating CHEAL” value ([2]; 250 g ai/ha)?
The value was 100.

And the “phytotoxicity rating IPOHE” value ([3]; 63 g ai/ha)?
The value was 10.

And the “phytotoxicity rating IPOHE” value ([3]; 250 g ai/ha)?
Its value is 50.

What about the “phytotoxicity rating DIGSA” value ([4]; 63 g ai/ha) of the same compound?
The value was 0.

What about the “phytotoxicity rating DIGSA” value ([4]; 250 g ai/ha) of the same compound?
Its value is 50.

And the “phytotoxicity rating CASOB” value ([5]; 63 g ai/ha)?
Its value is 0.

What about the “phytotoxicity rating CASOB” value ([5]; 250 g ai/ha) of the same compound?
Its value is 60.

And the “phytotoxicity rating SORHA” value ([6]; 63 g ai/ha)?
The value was 0.

And the “phytotoxicity rating SORHA” value ([6]; 250 g ai/ha)?
The value was 30.

And the “phytotoxicity rating ECHCG” value ([7]; 63 g ai/ha)?
The value was 0.

What about the “phytotoxicity rating ECHCG” value ([7]; 250 g ai/ha) of the same compound?
The value was 10.

And the “phytotoxicity rating ABUTH” value ([8]; 63 g ai/ha)?
The value was 75.

What about the “phytotoxicity rating ABUTH” value ([8]; 250 g ai/ha) of the same compound?
Its value is 100.

And the “phytotoxicity rating SETVI” value ([9]; 63 g ai/ha)?
Its value is 10.

And the “phytotoxicity rating SETVI” value ([9]; 250 g ai/ha)?
Its value is 60.

What about the “phytotoxicity rating CORN” value ([10]; 63 g ai/ha) of the same compound?
The value was 0.

And the “phytotoxicity rating CORN” value ([10]; 250 g ai/ha)?
The value was 0.

And the “phytotoxicity rating RICE” value ([11]; 63 g ai/ha)?
The value was 0.

And the “phytotoxicity rating RICE” value ([11]; 250 g ai/ha)?
The value was 0.

And the “Post-emerge Herbicidal Activity CORN (crop damage rating)” value ([12]; 63 g ai/ha)?
Its value is 0.

What about the “Post-emerge Herbicidal Activity CORN (crop damage rating)” value ([12]; 250 g ai/ha) of the same compound?
Its value is 10.

What about the “Post-emerge Herbicidal Activity RICE (crop damage rating)” value ([13]; 63 g ai/ha) of the same compound?
Its value is 0.

What about the “Post-emerge Herbicidal Activity RICE (crop damage rating)” value ([13]; 250 g ai/ha) of the same compound?
The value was 20.

And the “Post-emerge Herbicidal Activity CHEAL (phytotoxicity rating)” value ([14]; 63 g ai/ha)?
The value was 30.

What about the “Post-emerge Herbicidal Activity CHEAL (phytotoxicity rating)” value ([14]; 250 g ai/ha) of the same compound?
The value was 70.

And the “Post-emerge Herbicidal Activity IPOHE (phytotoxicity rating)” value ([15]; 63 g ai/ha)?
The value was 0.

And the “Post-emerge Herbicidal Activity IPOHE (phytotoxicity rating)” value ([15]; 250 g ai/ha)?
Its value is 0.

What about the “Post-emerge Herbicidal Activity DIGSA (phytotoxicity rating)” value ([16]; 63 g ai/ha) of the same compound?
Its value is 0.

What about the “Post-emerge Herbicidal Activity DIGSA (phytotoxicity rating)” value ([16]; 250 g ai/ha) of the same compound?
The value was 0.

And the “Post-emerge Herbicidal Activity CASOB (phytotoxicity rating)” value ([17]; 63 g ai/ha)?
Its value is 0.

What about the “Post-emerge Herbicidal Activity CASOB (phytotoxicity rating)” value ([17]; 250 g ai/ha) of the same compound?
The value was 10.

What about the “Post-emerge Herbicidal Activity SORHA (phytotoxicity rating)” value ([18]; 63 g ai/ha) of the same compound?
The value was 0.

And the “Post-emerge Herbicidal Activity SORHA (phytotoxicity rating)” value ([18]; 250 g ai/ha)?
Its value is 0.

And the “Post-emerge Herbicidal Activity ECHCG (phytotoxicity rating)” value ([19]; 63 g ai/ha)?
Its value is 0.

And the “Post-emerge Herbicidal Activity ECHCG (phytotoxicity rating)” value ([19]; 250 g ai/ha)?
Its value is 0.

And the “Post-emerge Herbicidal Activity AMARE (phytotoxicity rating)” value ([20]; 63 g ai/ha, rating scale 0-100 (0 no damage, 100 complete death))?
The value was 60.

And the “Post-emerge Herbicidal Activity AMARE (phytotoxicity rating)” value ([20]; 250 g ai/ha, rating scale 0-100)?
Its value is 60.

What about the “Post-emerge Herbicidal Activity ABUTH (phytotoxicity rating)” value ([21]; 63 g ai/ha) of the same compound?
Its value is 40.

What about the “Post-emerge Herbicidal Activity ABUTH (phytotoxicity rating)” value ([21]; 250 g ai/ha) of the same compound?
Its value is 70.

And the “Post-emerge Herbicidal Activity SETVI (phytotoxicity rating)” value ([22]; 63 g ai/ha)?
The value was 0.

And the “Post-emerge Herbicidal Activity SETVI (phytotoxicity rating)” value ([22]; 250 g ai/ha)?
Its value is 0.
